Test results from US20240083885A1, “COMPOSITIONS AND METHODS FOR INHIBITING M PRO PROTEASE ACTIVITY AND FOR PREVENTING AND TREATING SARS-COV-2 INFECTION” (priority 2020, published 2024).
Like-named read-outs stand apart in the source and are kept apart here.

Experiments:
SARS-CoV-2 M^pro = SARS-CoV-2 M^pro (Severe acute respiratory syndrome coronavirus 2 (2019-nCoV) (SARS-CoV-2), UniProt P0DTD1); experiment: biochemical
SARS-CoV-2 = experiment: microbe, parasite or virus in culture; type: cell-based
Vero E6 cells = experiment: Cytotoxicity in Vero E6 cells (neutral red uptake); conditions: read-out: CC50 in Vero E6 cells
in vitro = conditions: African green monkey, Vero E6 Cytotoxicity CC50 (μM)
[1] = Severe acute respiratory syndrome coronavirus 2, Vero C1008; read-out: SARS-COV-2 antiviral activity using immunofluorescence assay EC50
[2] = read-out: IC50 against SARS-CoV-2 M^pro
[3] = read-out: SARS-COV-2 main protease enzymatic inhibition IC50
[4] = Severe acute respiratory syndrome coronavirus 2, Vero C1008; Vero E6 cells, immunofluorescence assay; read-out: SARS-CoV-2 antiviral assay EC50
[5] = Severe acute respiratory syndrome coronavirus 2, Vero C1008; read-out: antiviral EC50 against SARS-CoV-2 in Vero E6 cells
[6] = SARS-COV-2 main protease enzymatic inhibition IC50
[7] = read-out: SARS-CoV-2 M^pro IC50

Structure (SMILES): C[C@H](NC(=O)C(c1cccnc1)N(C(=O)c1ccco1)c1ccc(-c2ccccc2)cc1)c1ccccc1 (single isomer, unassigned) [Compound 23S]
- IC50 (SARS-CoV-2 M^pro; IC50 against SARS-CoV-2 M^pro): > 10 µM
- IC50 (SARS-CoV-2 M^pro; SARS-CoV-2 M^pro IC50 (μM)): > 10 µM

Structure (SMILES): C[C@H](NC(=O)C(c1cccnc1)N(C(=O)c1ccco1)c1ccc(-c2ccccc2)cc1)c1ccccc1 (single isomer, unassigned) [Jun8-76-3B]
- EC50 (SARS-CoV-2; [1]): 2.97 µM
- EC50 (SARS-CoV-2 M^pro; SARS-COV-2 main protease enzymatic inhibition (separated diastereomers, printed as EC50)): 1.35 µM

Structure (SMILES): C[C@H](NC(=O)C(c1cccnc1)N(C(=O)c1ccno1)c1ccc(-c2ccccc2)cc1)c1ccccc1 (stereo partly shown) [Compound 25]
- IC50 (SARS-CoV-2 M^pro; [2]): 2.47 ± 0.27 µM
- CC50 (Vero E6 cells): > 100 µM

Structure (SMILES): CC(C)(C)NC(=O)C(c1cnccn1)N(C(=O)c1ccco1)c1ccc(C(C)(C)C)cc1 (stereo not shown) [Compound 27]
- CC50 (Vero E6 cells): > 100 µM

Structure (SMILES): C[C@H](NC(=O)C(c1cccnc1)N(C(=O)c1ccno1)c1ccc(C2CCCCC2)cc1)c1ccccc1 (stereo partly shown) [Compound 36]
- IC50 (SARS-CoV-2 M^pro; [2]): 0.81 ± 0.24 µM

Structure (SMILES): O=C(NCC(c1ccccc1)c1ccccc1)C(c1cccnc1)N(C(=O)c1ccco1)c1ccc(-c2ccccc2)cc1 (stereo not shown) [Compound 39]
- IC50 (SARS-CoV-2 M^pro; IC50 against SARS-CoV-2 M^pro): < 5 µM
- CC50 (Vero E6 cells): > 100 µM

Structure (SMILES): C[C@H](NC(=O)C(c1cccnc1)N(C(=O)c1ccco1)c1ccc(C(C)(C)C)cc1)c1ccccc1 (stereo partly shown) [Jun8-56-1]
- EC50 (SARS-CoV-2; [1]): 17.2 µM
- IC50 (SARS-CoV-2 M^pro; [3]): 5.7 µM

Structure (SMILES): CC(C)(C)c1ccc(N(C(=O)c2ccco2)C(C(=O)NC2CC2)c2cccnc2)cc1 (stereo not shown) [Jun8-58-2]
- IC50 (SARS-CoV-2 M^pro; [3]): 3.86 µM

Structure (SMILES): C[C@H](NC(=O)C(c1cccnc1)N(C(=O)c1ccco1)c1ccc(C2CCCCC2)cc1)c1ccccc1 (stereo partly shown) [Jun8-66-1]
- IC50 (SARS-CoV-2 M^pro; [3]): 0.51 µM

Structure (SMILES): CC(C)(C)c1ccc(N(C(=O)c2ccco2)C(C(=O)NCn2nnc3ccccc32)c2cccnc2)cc1 (stereo not shown) [Jun8-74-1]
- IC50 (SARS-CoV-2 M^pro; [3]): 8.13 µM

Structure (SMILES): C[C@H](NC(=O)C(c1cccnc1)N(C(=O)c1ccco1)c1ccc([Si](C)(C)C)cc1)c1ccccc1 (stereo partly shown) [Jun8-75-2]
- EC50 (SARS-CoV-2; Severe acute respiratory syndrome coronavirus 2, Vero C1008, read-out: SARS-COV-2 antiviral activity using immunofluorescence assay EC50): 8.84 µM
- IC50 (SARS-CoV-2 M^pro; [3]): 1.97 µM

Structure (SMILES): C[C@H](NC(=O)C(c1cccnc1)N(C(=O)c1ccco1)c1ccc(-c2ccccc2)cc1)c1ccccc1 (stereo partly shown) [Jun8-76-3]
- EC50 (SARS-CoV-2; [4]): 1.61 ± 0.29 µM
- EC50 (SARS-CoV-2; [1]): 1.83 µM
- EC50 (SARS-CoV-2; [5]): 0.82 to 4.54 µM
- IC50 (SARS-CoV-2 M^pro; IC50 against SARS-CoV-2 M^pro): < 3 µM
- IC50 (SARS-CoV-2 M^pro; [6]): 0.31 µM
- IC50 (SARS-CoV-2 M^pro; SARS-CoV-2 M^pro IC50 (μM)): 0.31 ± 0.13 µM
- CC50 (Vero E6 cells): > 100 µM
- CC50 at 5 days (in vitro): > 200 µM

Structure (SMILES): C[C@H](NC(=O)C(c1cccnc1)N(C(=O)c1ccco1)c1ccc(-n2cccc2)cc1)c1ccccc1 (stereo partly shown) [Jun8-76-5]
- Selectivity index SI CC50/EC50 (SARS-CoV-2): >115.6
- EC50 (SARS-CoV-2; [4]): 1.73 ± 0.19 µM
- EC50 (SARS-CoV-2; [1]): 1.9 µM
- EC50 (SARS-CoV-2; [5]): 0.82 to 4.54 µM
- IC50 (SARS-CoV-2 M^pro; IC50 against SARS-CoV-2 M^pro): < 3 µM
- IC50 (SARS-CoV-2 M^pro; [3]): 0.94 µM
- IC50 (SARS-CoV-2 M^pro; [7]): 0.94 ± 0.33 µM
- CC50 (Vero E6 cells): > 100 µM
- CC50 at 5 days (in vitro): > 200 µM

Structure (SMILES): CC(C)NC(=O)C(c1cccnc1)N(C(=O)c1ccco1)c1ccc(C(C)(C)C)cc1 (stereo not shown) [Jun8-88-1]
- IC50 (SARS-CoV-2 M^pro; [3]): 5.37 µM

Structure (SMILES): CC(C)(C)c1ccc(N(C(=O)c2ccco2)C(C(=O)NC2CCCC2)c2cccnc2)cc1 (stereo not shown) [Jun8-88-2]
- EC50 (SARS-CoV-2; [1]): 12.9 µM
- IC50 (SARS-CoV-2 M^pro; [3]): 2.51 µM

Structure (SMILES): C[C@H](NC(=O)C(c1cccnc1)N(C(=O)c1c[nH]cn1)c1ccc(-c2ccccc2)cc1)c1ccccc1 (stereo partly shown) [Jun8-90-3]
- EC50 (SARS-CoV-2; [5]): 0.82 to 4.54 µM
- IC50 (SARS-CoV-2 M^pro; [7]): 0.96 ± 0.09 µM
- CC50 (Vero E6 cells): > 100 µM
- CC50 at 5 days (in vitro): 129 ± 25.1 µM

Structure (SMILES): C[C@H](NC(=O)C(c1cccnc1)N(C(=O)c1ccco1)c1ccc(-c2cccs2)cc1)c1ccccc1 (stereo partly shown) [Jun8-91-4]
- IC50 (SARS-CoV-2 M^pro; [6]): 14.6 µM

Structure (SMILES): C[C@H](NC(=O)C(c1cccnc1)N(C(=O)c1ccco1)c1ccc(-c2ccco2)cc1)c1ccccc1 (stereo partly shown) [Jun8-91-5]
- IC50 (SARS-CoV-2 M^pro; [3]): 2.54 µM

Structure (SMILES): C[C@H](NC(=O)C(c1cccnc1)N(C(=O)c1ccco1)c1ccc(-c2cnn(C)c2)cc1)c1ccccc1 (stereo partly shown) [Jun8-91-6]
- IC50 (SARS-CoV-2 M^pro; [6]): 37.3 µM

Structure (SMILES): C[C@H](NC(=O)C(c1cccnc1)N(C(=O)c1cnco1)c1ccc(-c2ccccc2)cc1)c1ccccc1 (stereo partly shown) [Jun8-92-2]
- IC50 (SARS-CoV-2 M^pro; [3]): 4.99 µM

Structure (SMILES): C[C@H](NC(=O)C(c1cccnc1)N(C(=O)c1ccco1)c1ccc(Cc2ccccc2)cc1)c1ccccc1 (stereo partly shown) [Jun8-92-4]
- IC50 (SARS-CoV-2 M^pro; [3]): 35.1 µM
